Source: patent US20110039847A1, “AMIDE DERIVATIVES AS SIRTUIN MODULATORS” (Sirtris Pharmaceuticals, Inc, priority 2007, published 2011)

Biological target: T1, SIRT1 (Homo sapiens, UniProt Q96EB6)
T1 sequence (Q96EB6 1-747): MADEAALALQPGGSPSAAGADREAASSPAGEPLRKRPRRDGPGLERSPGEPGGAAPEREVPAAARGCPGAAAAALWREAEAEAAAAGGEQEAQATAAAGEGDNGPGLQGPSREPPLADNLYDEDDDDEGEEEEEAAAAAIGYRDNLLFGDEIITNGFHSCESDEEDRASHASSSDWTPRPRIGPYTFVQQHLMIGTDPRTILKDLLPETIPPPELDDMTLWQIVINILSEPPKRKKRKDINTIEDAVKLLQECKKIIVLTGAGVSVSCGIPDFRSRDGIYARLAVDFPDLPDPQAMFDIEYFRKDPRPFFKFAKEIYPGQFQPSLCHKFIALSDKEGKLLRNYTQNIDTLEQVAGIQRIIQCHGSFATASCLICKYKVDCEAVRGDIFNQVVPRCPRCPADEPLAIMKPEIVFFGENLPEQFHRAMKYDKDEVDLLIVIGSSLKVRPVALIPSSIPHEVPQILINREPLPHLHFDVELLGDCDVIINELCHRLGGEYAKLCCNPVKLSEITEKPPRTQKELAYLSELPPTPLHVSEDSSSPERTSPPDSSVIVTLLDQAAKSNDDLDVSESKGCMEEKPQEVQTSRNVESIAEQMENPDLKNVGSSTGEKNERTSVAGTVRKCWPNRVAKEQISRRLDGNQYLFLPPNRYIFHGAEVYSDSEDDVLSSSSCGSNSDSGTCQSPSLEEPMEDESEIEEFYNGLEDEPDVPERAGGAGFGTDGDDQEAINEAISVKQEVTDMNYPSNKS
Test: Mass spectrometry based SIRT1 deacetylation (activation) assay
Type: biochemical
Details: 0.5 μM peptide substrate, 120 μM βNAD+, 10 nM SIRT1, 25 min at 25° C.; for Emax: 25 min, read-out: % Fold Act. (percent maximum fold activation)
Description: A mass spectrometry based assay was used to identify modulators of SIRT1 activity. The mass spectrometry based assay utilizes a peptide having 20 amino acid residues as follows: Ac-EE-K(biotin)-GQSTSSHSK(Ac)NleSTEG-K(5TMR)-EE-NH2 (SEQ ID NO: 1) wherein K(Ac) is an acetylated lysine residue and Nle is a norleucine. The peptide is labeled with the fluorophore 5TMR (excitation 540 nm/emission 580 nm) at the C-terminus. The sequence of the peptide substrate is based on p53 with several modifications. In addition, the methionine residue naturally present in the sequence was replaced with the norleucine because the methionine may be susceptible to oxidation during synthesis and purification.
The mass spectrometry assay is conducted as follows: 0.5 μM peptide substrate and 120 μM βNAD^+ is incubated with 10 nM SIRT1 for 25 minutes at 25° C. in a reaction buffer (50 mM Tris-acetate pH 8, 137 mM NaCl, 2.7 mM KCl, 1 mM MgCl2, 5 mM DTT, 0.05% BSA). Test compounds may be added to the reaction as described above. […] After the 25 minute incubation with SIRT1, 10 μL of 10% formic acid is added to stop the reaction. Reactions are sealed and frozen for later mass spec analysis. Determination of the mass of the substrate peptide allows for precise determination of the degree of acetylation (i.e. starting material) as compared to deacetylated peptide (product).
A control for inhibition of sirtuin activity is conducted by adding 1 μL of 500 mM nicotinamide as a negative control at the start of the reaction (e.g., permits determination of maximum sirtuin inhibition). A control for activation of sirtuin activity is conducted using 10 nM of sirtuin protein, with 1 μL of DMSO in place of compound, to determine the amount of deacetylation of the substrate at a given timepoint within the linear range of the assay. This timepoint is the same as that used for test compounds and, within the linear range, the endpoint represents a change in velocity.
For the above assay, SIRT1 protein was expressed and purified as follows. […] The protein was expressed by induction with 1 mM IPTG as an N-terminal His-tag fusion protein at 18° C. overnight and harvested at 30,000×g. Cells were lysed with lysozyme in lysis buffer (50 mM Tris-HCl, 2 mM Tris[2-carboxyethyl]phosphine (TCEP), 10 μM ZnCl2, 200 mM NaCl) and further treated with sonication for 10 min for complete lysis. The protein was purified over a Ni-NTA column (Amersham) and fractions containing pure protein were pooled, concentrated and run over a sizing column (Sephadex S200 26/60 global). The peak containing soluble protein was collected and run on an Ion-exchange column (MonoQ). Gradient elution (200 mM-500 mM NaCl) yielded pure protein. This protein was concentrated and dialyzed against dialysis buffer (20 mM Tris-HCl, 2 mM TCEP) overnight. The protein was aliquoted and frozen at −80° C. until further use.

| SMILES | EC1.5 | Emax [%] |
| --- | --- | --- |
| CCN(CCN(C)C)c1cc(C(=O)Nc2ccccc2-c2nnc(NS(C)(=O)=O)s2)nc(-c2ccccc2)n1 [Compound 98] | A (EC1.5≦1 uM) | ≥ 300 |
| CC(C)(C)c1cnc(-c2ccccc2NC(=O)c2cc(OC[C@@H](O)CO)cc(-c3ccccc3)n2)s1 [Compound 75] | B (EC1.5>1 and ≦10 uM) | ≥ 300 |
| CC(=O)c1ccccc1NC(=O)c1cc(N2CCNCC2)nc(-c2ccccc2)n1 [Compound 138] | B (EC1.5>1 and ≦10 uM) | ≥ 300 |
| CN(C)CCNc1cc(C(=O)Nc2ccccc2C(=O)Nc2cccnc2)nc(-c2ccccc2)n1 [Compound 155, 6-(2-(dimethylamino)ethylamino)-2-phenyl-N-(2-(pyridin-3-ylcarbamoyl)phenyl)pyrimidine-4-carboxamide] | A (EC1.5≦1 uM) | ≥ 300 |
| C/C(=N\O)c1ccccc1NC(=O)c1cc(NCCN(C)C)nc(-c2ccccc2)n1 [Compound 132] | B (EC1.5>1 and ≦10 uM) | 150 to 300 |
| CCN(CCN(C)C)c1cc(C(=O)Nc2ccccc2C(=O)NC2CCCN(C(=O)OC(C)(C)C)C2)nc(-c2ccccc2)n1 (stereo not shown) [Compound 172, tert-butyl 3-(2-(6-((2-(dimethylamino)ethyl)(ethyl)amino)-2-phenylpyrimidine-4-carboxamido)benzamido)piperidine-1-carboxylate] | B (EC1.5>1 and ≦10 uM) | 150 to 300 |
| CN1CCN(c2cc(C(=O)Nc3ccccc3-c3nnc(C(=O)N4CCOCC4)s3)nc(-c3ccccc3)n2)CC1=O [Compound 88] | A (EC1.5≦1 uM) | ≥ 300 |
| CNCCN(C)c1cc(C(=O)Nc2ccccc2-c2nnc(C3CCC3)s2)nc(-c2ccccc2)n1 [Compound 47] | A (EC1.5≦1 uM) | 150 to 300 |
| CN(C)CCN(C)c1cc(C(=O)Nc2ccccc2-c2nnc(-c3ccccc3)s2)nc(-c2ccccc2)n1 [Compound 179] | C (EC1.5>10 uM) | 150 to 300 |
| CCN(CCN(C)C)c1cc(C(=O)Nc2ccccc2-c2nnc(C(=O)NC)s2)nc(-c2ccccc2)n1 [Compound 86] | A (EC1.5≦1 uM) | 150 to 300 |
| CN(C)CCN(C)c1cc(C(=O)Nc2ccccc2-c2nncs2)nc(-c2ccccc2)n1 [Compound 27] | A (EC1.5≦1 uM) | ≥ 300 |
| CN(C)CCNc1cc(C(=O)Nc2ccccc2-c2nnc(C3CCCC3)s2)nc(-c2ccccc2)n1 [Compound 49] | B (EC1.5>1 and ≦10 uM) | 150 to 300 |
| CN(C)CCNc1cc(C(=O)Nc2ccccc2C#N)nc(-c2ccccc2)n1 [Compound 4] | B (EC1.5>1 and ≦10 uM) | 150 to 300 |
| CCOC(=O)c1nnc(-c2ccccc2NC(=O)c2cc(N(CC)CCN(C)C)nc(-c3ccccc3)n2)s1 [Compound 59] | A (EC1.5≦1 uM) | 150 to 300 |
| CC(=O)c1ccccc1NC(=O)c1cc(NC2CCNCC2)nc(-c2ccccc2)n1 [Compound 140] | A (EC1.5≦1 uM) | ≥ 300 |
| CN(C)CCNc1cc(C(=O)Nc2ccccc2C(=O)N2CCCC2)nc(-c2ccccc2)n1 [Compound 120, 6-(2-(dimethylamino)ethylamino)-2-phenyl-N-(2-(pyrrolidine-1-carbonyl)phenyl)pyrimidine-4-carboxamide] | C (EC1.5>10 uM) | ≥ 300 |

| SMILES | EC1.5 | Emax [%] |
| --- | --- | --- |
| O=C(Nc1ccccc1-c1nnc(C(=O)N2CCOCC2)s1)c1cc(OC[C@@H](O)CO)nc(-c2ccccc2)n1 [Compound 91] | A (EC1.5≦1 uM) | 150 to 300 |
| CN(C)CCNc1cc(C(=O)Nc2ccccc2-c2ncc(-c3ccccc3)o2)nc(-c2ccccc2)c1 [Compound 30] | A (EC1.5≦1 uM) | ≥ 300 |
| CC(O)c1ccccc1NC(=O)c1cc(NCCN(C)C)nc(-c2ccccc2)n1 (stereo not shown) [Compound 133] | C (EC1.5>10 uM) | 150 to 300 |
| CN(C)CCNC(=O)c1nnc(-c2ccccc2NC(=O)c2cc(NCCN(C)C)nc(-c3ccccc3)n2)s1 [Compound 58] | A (EC1.5≦1 uM) | ≥ 300 |
| CN(C)CCNc1cc(C(=O)Nc2ccccc2)nc(-c2ccccc2)n1 [Compound 6] | C (EC1.5>10 uM) | 150 to 300 |
| CCN(CCN(C)C)c1cc(C(=O)Nc2ccccc2Br)nc(-c2ccccc2)n1 [Compound 159] | B (EC1.5>1 and ≦10 uM) | 150 to 300 |
| CCN(CCN(C)C)c1cc(C(=O)Nc2ccccc2C(=O)NC2CCCC2)nc(-c2ccccc2)n1 [Compound 169, N-(2-(cyclopentylcarbamoyl)phenyl)-6-((2-(dimethylamino)ethyl)(ethyl)amino)-2-phenylpyrimidine-4-carboxamide] | B (EC1.5>1 and ≦10 uM) | ≥ 300 |
| CCN1CCN(c2cc(C(=O)Nc3ccccc3-c3nnc(C4CCOCC4)s3)nc(-c3ccccc3)n2)CC1=O [Compound 94, 6-(4-ethyl-3-oxopiperazin-1-yl)-2-phenyl-N-(2-(5-(tetrahydro-2H-pyran-4-yl)-1,3,4-thiadiazol-2-yl)phenyl)pyrimidine-4-carboxamide] | A (EC1.5≦1 uM) | 150 to 300 |
| CCN(CCOC)c1cc(C(=O)Nc2ccccc2-c2ncc(C(C)(C)C)o2)nc(-c2ccccc2)c1 [Compound 85] | A (EC1.5≦1 uM) | ≥ 300 |
| CCN(CCN(C)C)c1cc(C(=O)Nc2ccccc2-c2nnc(-c3ccccc3)s2)nc(-c2ccccc2)n1 [Compound 36] | A (EC1.5≦1 uM) | 150 to 300 |
| Cc1csc(-c2ccccc2NC(=O)c2cc(NCCN(C)C)nc(-c3ccccc3)n2)n1 [Compound 7] | B (EC1.5>1 and ≦10 uM) | ≥ 300 |
| CCCCC(=O)c1ccccc1NC(=O)c1cc(NCCN(C)C)nc(-c2ccccc2)n1 [Compound 127] | B (EC1.5>1 and ≦10 uM) | 150 to 300 |
| CN(C)CCNc1cc(C(=O)Nc2ccccc2C(=O)Nc2ccc(Cl)c(Cl)c2)nc(-c2ccccc2)n1 [Compound 153, N-(2-(3,4-dichlorophenylcarbamoyl)phenyl)-6-(2-(dimethylamino)ethylamino)-2-phenylpyrimidine-4-carboxamide] | C (EC1.5>10 uM) | 150 to 300 |
| CCN(CCN(C)C)c1cc(C(=O)Nc2ccccc2C(=O)NC2CCN(C(=O)OC(C)(C)C)CC2)nc(-c2ccccc2)n1 [Compound 166, tert-butyl 4-(2-(6-((2-(dimethylamino)ethyl)(ethyl)amino)-2-phenylpyrimidine-4-carboxamido)benzamido)piperidine-1-carboxylate] | B (EC1.5>1 and ≦10 uM) | 150 to 300 |
| CCN(CCN(C)C)c1cc(C(=O)Nc2ccccc2-c2ncc(-c3ccccc3)o2)nc(-c2ccccc2)n1 [Compound 64] | A (EC1.5≦1 uM) | 150 to 300 |
| CN(C)CCNc1cc(C(=O)Nc2ccccc2-c2nnc(N3CCOCC3)s2)nc(-c2ccccc2)n1 [Compound 101] | A (EC1.5≦1 uM) | ≥ 300 |
